The CheMixHub viscosity set
± gives the uncertainty stated by the source.

Experiment: xn = mol fraction of the nth substance listed

C1CCCC1 + C1CCCCC1
303.15 K, 101 kPa
Conditions | viscosity [mPa·s]
x1 = 0.1022 | 0.7604 ± 0.0049
x1 = 0.2029 | 0.6988 ± 0.0046
x1 = 0.2998 | 0.6457 ± 0.0044
x1 = 0.3944 | 0.599 ± 0.0042
x1 = 0.4949 | 0.5545 ± 0.004
x1 = 0.5917 | 0.5159 ± 0.0038
x1 = 0.6949 | 0.4788 ± 0.0037
x1 = 0.7843 | 0.4494 ± 0.0036
x1 = 0.8966 | 0.4147 ± 0.0034

COC(=O)CCCCC(=O)OC + C1CCOC1
viscosity [mPa·s], 101 kPa
Conditions | 293.15 K | 298.15 K | 303.15 K | 308.15 K | 313.15 K | 318.15 K | 323.15 K
x1 = 0.1 | 0.6562 ± 0.02 | 0.6229 ± 0.019 | 0.5909 ± 0.018 | 0.5598 ± 0.017 | 0.5294 ± 0.016 | 0.4989 ± 0.015 | 0.4706 ± 0.015
x1 = 0.2 | 0.8354 ± 0.026 | 0.7852 ± 0.024 | 0.7403 ± 0.023 | 0.6982 ± 0.021 | 0.6588 ± 0.02 | 0.6205 ± 0.019 | 0.5877 ± 0.018
x1 = 0.3 | 1.042 ± 0.032 | 0.9731 ± 0.03 | 0.9111 ± 0.028 | 0.8539 ± 0.026 | 0.8024 ± 0.025 | 0.7543 ± 0.023 | 0.7132 ± 0.022
x1 = 0.3994 | 1.277 ± 0.039 | 1.183 ± 0.036 | 1.1 ± 0.034 | 1.026 ± 0.032 | 0.958 ± 0.029 | 0.906 ± 0.028 | 0.8459 ± 0.026
x1 = 0.5001 | 1.545 ± 0.047 | 1.42 ± 0.044 | 1.311 ± 0.04 | 1.217 ± 0.037 | 1.134 ± 0.035 | 1.063 ± 0.033 | 0.9929 ± 0.031
x1 = 0.5909 | 1.811 ± 0.056 | 1.652 ± 0.051 | 1.517 ± 0.047 | 1.4 ± 0.043 | 1.299 ± 0.04 | 1.206 ± 0.037 | 1.132 ± 0.035
x1 = 0.5999 | 1.838 ± 0.056 | 1.676 ± 0.051 | 1.541 ± 0.047 | 1.421 ± 0.044 | 1.315 ± 0.041 | 1.221 ± 0.038 | 1.146 ± 0.035
x1 = 0.7003 | 2.163 ± 0.067 | 1.956 ± 0.06 | 1.78 ± 0.055 | 1.63 ± 0.05 | 1.506 ± 0.046 | 1.382 ± 0.043 | 1.302 ± 0.04
x1 = 0.7999 | 2.514 ± 0.077 | 2.255 ± 0.069 | 2.042 ± 0.063 | 1.858 ± 0.057 | 1.7 ± 0.052 | 1.556 ± 0.048 | 1.458 ± 0.045
x1 = 0.8937 | 2.866 ± 0.088 | 2.555 ± 0.079 | 2.298 ± 0.071 | 2.08 ± 0.064 | 1.892 ± 0.058 | 1.731 ± 0.053 | 1.609 ± 0.05
x1 = 0.8996 | 2.888 ± 0.089 | 2.574 ± 0.079 | 2.314 ± 0.071 | 2.095 ± 0.065 | 1.905 ± 0.059 | 1.742 ± 0.054 | 1.619 ± 0.05

NCCO + C1COCCO1
101 kPa
Conditions | viscosity [mPa·s]
298.15 K, x2 = 0.0597 | 16.05 ± 0.49
318.15 K, x2 = 0.5716 | 2.255 ± 0.069

OCc1ccccc1 + C1COCCO1
viscosity [mPa·s], 101 kPa
Conditions | x1 = 0.201 | x1 = 0.2986 | x1 = 0.4001 | x1 = 0.4991 | x1 = 0.7017 | x1 = 0.9009
303.15 K | 1.398 ± 0.068 | 1.609 ± 0.078 | 1.842 ± 0.088 | 2.149 ± 0.1 | 2.975 ± 0.14 | 4.03 ± 0.19
308.15 K | 1.288 ± 0.063 | 1.456 ± 0.071 | 1.679 ± 0.081 | 1.92 ± 0.092 | 2.615 ± 0.12 | 3.54 ± 0.17
313.15 K | 1.178 ± 0.058 | 1.385 ± 0.068 | 1.553 ± 0.075 | 1.797 ± 0.086 | 2.387 ± 0.11 | 3.199 ± 0.15

C1CCCC1 + C1COCO1
viscosity [mPa·s], 101.3 kPa
Conditions | x1 = 0.0988 | x1 = 0.1997 | x1 = 0.3005 | x1 = 0.3997 | x1 = 0.4992 | x1 = 0.5979 | x1 = 0.7027 | x1 = 0.7987 | x1 = 0.8995
298.15 K | 0.5513 ± 0.0052 | 0.5176 ± 0.005 | 0.4908 ± 0.0048 | 0.4685 ± 0.0047 | 0.4495 ± 0.0046 | 0.434 ± 0.0045 | 0.4216 ± 0.0044 | 0.4149 ± 0.0044 | 0.4124 ± 0.0044
313.15 K | 0.4666 ± 0.0046 | 0.438 ± 0.0044 | 0.415 ± 0.0042 | 0.3968 ± 0.0041 | 0.3804 ± 0.004 | 0.3679 ± 0.004 | 0.3581 ± 0.0039 | 0.352 ± 0.0039 | 0.351 ± 0.0039

CCC(C)CC(C)C (stereo unspecified) + C1C[C@@H]2[C@H]3CC[C@H](C3)[C@@H]2C1
viscosity [mPa·s], 100 kPa
Conditions | x2 = 0.1017 | x2 = 0.2008 | x2 = 0.3005 | x2 = 0.4002 | x2 = 0.5006 | x2 = 0.6001 | x2 = 0.7001 | x2 = 0.8012 | x2 = 0.8999
293.15 K | 0.538 ± 0.012 | 0.616 ± 0.013 | 0.717 ± 0.016 | 0.847 ± 0.018 | 1.007 ± 0.022 | 1.216 ± 0.026 | 1.478 ± 0.032 | 1.84 ± 0.04 | 2.322 ± 0.051
298.15 K | 0.511 ± 0.011 | 0.582 ± 0.013 | 0.674 ± 0.015 | 0.792 ± 0.017 | 0.937 ± 0.02 | 1.126 ± 0.024 | 1.361 ± 0.03 | 1.685 ± 0.037 | 2.114 ± 0.046
303.15 K | 0.487 ± 0.011 | 0.552 ± 0.012 | 0.636 ± 0.014 | 0.744 ± 0.016 | 0.876 ± 0.019 | 1.048 ± 0.023 | 1.261 ± 0.027 | 1.552 ± 0.034 | 1.937 ± 0.042
308.15 K | 0.465 ± 0.01 | 0.524 ± 0.011 | 0.602 ± 0.013 | 0.7 ± 0.015 | 0.822 ± 0.018 | 0.979 ± 0.021 | 1.171 ± 0.025 | 1.435 ± 0.031 | 1.781 ± 0.039
313.15 K | 0.445 ± 0.01 | 0.5 ± 0.011 | 0.571 ± 0.012 | 0.662 ± 0.014 | 0.772 ± 0.017 | 0.916 ± 0.02 | 1.092 ± 0.024 | 1.331 ± 0.029 | 1.645 ± 0.036

CCC(=O)CC + CC(=O)CC(C)C
298.15 K, 101 kPa
Conditions | viscosity [mPa·s]
x2 = 0.0749 | 0.581 ± 0.006
x2 = 0.1609 | 0.575 ± 0.006
x2 = 0.3004 | 0.571 ± 0.006
x2 = 0.4466 | 0.566 ± 0.006
x2 = 0.5932 | 0.562 ± 0.006
x2 = 0.7509 | 0.558 ± 0.006
x2 = 0.8066 | 0.553 ± 0.006
x2 = 0.8789 | 0.548 ± 0.006

C1CCCC1 + CC(C)=O
viscosity [mPa·s], 101.33 kPa
Conditions | 293.15 K | 298.15 K | 303.15 K
x1 = 0.0453 | 0.318 ± 0.006 | 0.308 ± 0.006 | 0.29 ± 0.006
x1 = 0.0935 | 0.319 ± 0.006 | 0.304 ± 0.006 | 0.291 ± 0.006
x1 = 0.1869 | 0.319 ± 0.007 | 0.304 ± 0.006 | 0.289 ± 0.006
x1 = 0.2786 | 0.324 ± 0.007 | 0.309 ± 0.006 | 0.294 ± 0.006
x1 = 0.3922 | 0.333 ± 0.007 | 0.318 ± 0.007 | 0.303 ± 0.006
x1 = 0.517 | 0.344 ± 0.007 | 0.327 ± 0.007 | 0.311 ± 0.006
x1 = 0.6026 | 0.357 ± 0.007 | 0.338 ± 0.007 | 0.321 ± 0.007
x1 = 0.6876 | 0.367 ± 0.007 | 0.347 ± 0.007 | 0.332 ± 0.007
x1 = 0.795 | 0.385 ± 0.008 | 0.365 ± 0.007 | 0.347 ± 0.007
x1 = 0.9016 | 0.408 ± 0.008 | 0.39 ± 0.008 | 0.37 ± 0.007
x1 = 0.9511 | 0.419 ± 0.008 | 0.397 ± 0.008 | 0.377 ± 0.008

Nc1ccccc1[N+](=O)[O-] + CC(C)=O
viscosity [mPa·s], 101 kPa
Conditions | 298.15 K | 303.15 K | 308.15 K | 313.15 K
x1 = 0.3297 | 1.229 ± 0.031 | 1.142 ± 0.029 | 1.059 ± 0.027 | 0.9826 ± 0.025
x1 = 0.5407 | 2.366 ± 0.06 | 2.175 ± 0.055 | 1.994 ± 0.05 | 1.817 ± 0.046

OCc1ccccc1 + CC(C)=O
viscosity [mPa·s], 101 kPa
Conditions | x1 = 0.2007 | x1 = 0.2986 | x1 = 0.4007 | x1 = 0.5002 | x1 = 0.7013 | x1 = 0.9003
303.15 K | 0.506 ± 0.029 | 0.651 ± 0.035 | 0.894 ± 0.046 | 1.204 ± 0.06 | 2.122 ± 0.1 | 3.544 ± 0.17
308.15 K | 0.495 ± 0.028 | 0.632 ± 0.034 | 0.861 ± 0.045 | 1.11 ± 0.056 | 1.857 ± 0.09 | 3.118 ± 0.15
313.15 K | 0.479 ± 0.027 | 0.603 ± 0.033 | 0.807 ± 0.042 | 1.054 ± 0.053 | 1.74 ± 0.084 | 2.826 ± 0.13
